Measured values published in US20110124888A1, “STYRYLBENZOFURAN DERIVATIVES AS INHIBITORS FOR BETA-AMYLOID FIBRIL FORMATION AND PREPARATION METHOD THEREOF” (Korea Institute of Science and Technology, priority 2008, published 2011).

Assays:
[1] = molecular target: hERG potassium ion channel (Homo sapiens, UniProt Q12809); test: Inhibitory effect on hERG potassium ion channel (whole-cell patch clamp, HEK-hERG cells); type: cell-based; settings: for IC50: whole-cell patch clamp, room temperature, mean ± standard error, read-out: Inhibitory efficacy (IC50)
Chain of hERG potassium ion channel (Q12809 whole entry): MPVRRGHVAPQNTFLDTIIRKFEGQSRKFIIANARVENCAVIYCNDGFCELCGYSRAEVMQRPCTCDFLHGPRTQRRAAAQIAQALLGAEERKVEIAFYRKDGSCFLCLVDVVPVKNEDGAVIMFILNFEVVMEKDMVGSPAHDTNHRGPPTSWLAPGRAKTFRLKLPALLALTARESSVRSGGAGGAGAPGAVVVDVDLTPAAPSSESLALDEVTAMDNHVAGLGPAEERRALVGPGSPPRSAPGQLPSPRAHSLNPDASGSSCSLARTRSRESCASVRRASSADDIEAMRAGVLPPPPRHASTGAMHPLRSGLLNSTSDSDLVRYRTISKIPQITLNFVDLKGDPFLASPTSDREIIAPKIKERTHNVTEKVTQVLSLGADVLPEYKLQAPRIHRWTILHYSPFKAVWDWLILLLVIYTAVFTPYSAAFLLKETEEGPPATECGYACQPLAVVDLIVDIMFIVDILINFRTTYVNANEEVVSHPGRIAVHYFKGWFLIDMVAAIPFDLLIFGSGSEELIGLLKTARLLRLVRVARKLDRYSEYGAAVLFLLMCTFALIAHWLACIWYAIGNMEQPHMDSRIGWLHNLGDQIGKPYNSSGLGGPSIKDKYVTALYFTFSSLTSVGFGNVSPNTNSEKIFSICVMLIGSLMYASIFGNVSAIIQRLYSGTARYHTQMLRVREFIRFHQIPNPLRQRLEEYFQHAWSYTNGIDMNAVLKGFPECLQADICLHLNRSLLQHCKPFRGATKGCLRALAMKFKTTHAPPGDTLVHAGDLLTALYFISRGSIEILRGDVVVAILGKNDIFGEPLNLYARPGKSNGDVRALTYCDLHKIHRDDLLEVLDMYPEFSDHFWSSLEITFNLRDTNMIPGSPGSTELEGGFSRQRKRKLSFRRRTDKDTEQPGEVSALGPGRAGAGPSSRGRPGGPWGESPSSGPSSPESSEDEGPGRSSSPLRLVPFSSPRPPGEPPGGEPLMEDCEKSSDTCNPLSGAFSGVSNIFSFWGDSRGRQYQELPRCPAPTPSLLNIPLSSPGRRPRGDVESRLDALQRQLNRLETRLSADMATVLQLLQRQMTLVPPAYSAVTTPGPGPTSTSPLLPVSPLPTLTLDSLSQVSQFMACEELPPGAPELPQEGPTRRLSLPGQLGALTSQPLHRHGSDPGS
Procedure: 1) Model Cell Line and Culture
A HEK-hERG cell line (lonGate Biosciences, Frankfurt, Germany Co.), which expresses hERG stably, was cultured in a DMEM (Dulbecco's Modified Eagle's Medium, Sigma Co., St. Louis, Mo., USA) supplemented with 10% fetal bovine serum (FBS, Cambrex, Walkersville, Md., USA) and 0.5 mg/mL zeocin (Invitrogen, Carlsbad, Calif., USA). The cell line was subcultured 5 days after culture when 80% confluency was reached.
2) Preparation of Test Solution and Test Drug
A solution within an electrode used to measure the potassium ion current is composed of 115 mM K-aspartate, 20 mM KCl, 10 mM EGTA, 10 mM HEPES, 2.5 mM tris-phosphocreatine, 0.1 mM Na2GTP and 5 mM MgCl2 (pH 7.2, 290 mOsm/Kg H2O). A solution for an extracellular perfusate is composed of 135 mM NaCl, 5 mM KCl, 1 mM MgCl2, 2 mM CaCl2, 10 mM glucose, and 10 mM HEPES (pH 7.2, 300 mOsm/Kg H2O).
Test drug solutions were prepared by respectively diluting the inventive compounds with extracellular perfusate to a desired concentration. The prepared test drug solution was placed in a 7-array polyethylene tube connected into a capillary column for gas chromatography and was dropped from the tip of the column at a height of 100 μm or less to the HEK-hERG cell line.
3) Measurement of Ion Current
Potassium ion current was measured using EPC10 (Instrutech Co., NY, USA) patch clamp amplifier in accordance with the conventional whole-cell patch clamp method. Electrode used in the measurement was a borosilicate glass capillary (external diameter: 1.65 mm, inside diameter: 1.2 mm, Corning 7052, Gamer Glass Co., Claremont, Calif., USA) prepared by using P-97 Flaming-Brown micropipette puller (Sutter Instrument Co.). The electrode was coated with Sylgard 184 (Dow Corning Co., Midland, Mich., USA) and trimmed with microforge (Narishige Co., Tokyo, Japan). […] A culture dish containing HEK-hERG cells was placed in an inverted microscope (Nikon Co.) and extracellular perfusate containing the inventive compound was perfused at a rate of 1-2 mL/min. The membrane capacitance and series resistance of cell membrane were calibrated by 80% or more and potassium ion current was measured at a sampling rate of 2 kHz and a low-pass filter of 2 kHz (−3 dB; 8-pole Bassel filter). The test is conducted at room temperature (21-24° C.).
4) Data analysis and Statistics
The results were analyzed using Pulse/Pulsefit (v9.0, HEKA Elcktronik, Lambrecht, Germany) and Igor macro. The results were given as meant standard error.

[2] = Pharmacokinetics test in rats (plasma); type: in vivo, SD rats; settings: for BA: 2.5 mg/kg po vs 1.25 mg/kg iv; for AUC / Cmax / Tmax: SD, rat, plasma; for AUC: n = 3
Procedure: (§1) 1) Test Animal and Administration of Test Compound
(§2) Three 7 week-old ICR mice (weight: about 30 g) and three 8 week-old SD rats (weight: about 250 g) were used per test group. A solution prepared by dissolving the compounds of Examples 9 and 17 in excipient (DMSO/Tween 20/saline: 0.1/0.6/2.3, v/v/v) were administered to each experimental animal. The test compound was orally administered in an amount of 10 mL per kg of body weight or intravenously administered in an amount of 5 mL per kg of body weight through the fine vein.
(§3) 2) Blood Concentration Test
(§4) At 30 min, 1 hr, 2 hr, 4 hr, 10 hr and 24 hr after oral administration of the test compounds, the blood was collected from periorbital veins into the tube containing heparin (1000 IU/mL, 3 μl) for the mice, and from jugular vein for rats. The blood sample was centrifuged at 12,000 rpm for 2 min to obtain plasma. The obtained plasma was kept in freezer at −80° C. until the analysis.
(§5) The sample was analyzed using LC/MSMS system under the following condition:
(§6) The sample was pretreated as follows:
(§7) 50 μL of plasma was placed in 2.0 mL of tube having a cap (Eppendorf Co.) and acidified by adding 20 μL of 0.1% formic acid thereto. An internal standard solution and 1 mL of ethyl acetate as an extract solvent were added to the resultant solution. The resultant solution was mixed using thermomixer (Eppendorf Co.) at 1400 rpm for 5 min, and then subjected to centrifuge (Eppendorf Co.). The supernatant was collected and concentrated at 35° C. using cyclone. The residue was re-dissolved in 50 μL of moblie phase and 5 μL of the resulting solution was injected into LC/MS and analyzed.
(§8) In Tables 8 and 9, “iv” refers to a intravenous injection; “po” refers to a per oral; “AUC plasma” refers to an area under the plasma level-time curve; “Cmax” refers to a maximum plasma concentration; “Tmax” refers to a time to reach Cmax, “BA” refers to a bioavailability (%) according to Equation 2 below; “AUC Brain” refers to a area under the brain tissue level-time curve; and “AUCBrain/AUCPlasma” refers to a passage rate of the test compound to the brain.
(§9) Bioavailability (%)=[(AUCpo/AUCiv)×(Doseiv/Dosepo)×100] Equation 2
(§10) wherein, AUCpo means an area under the blood concentration time curve (AUC) after the per oral administration, AUCiv means an AUC after the intravenous injection, Doseiv means an amount of the intravenous injection, and Dosepo means an amount of the per oral administration.

[3] = Pharmacokinetics test in mice (plasma); type: in vivo, ICR mice; settings: for AUC / Cmax / Tmax: ICR, mouse, plasma; for AUC / Cmax / Tmax / BA: mice; for AUC: n = 3; for AUC (in words) / bioavailability (in words): mice and rats, Tables 8 and 9; for BA: 2.5 mg/kg po vs 1.25 mg/kg iv
Procedure: as §1, §2, §3, §4, §5, §6, §7, §8, §9, §10

Row | Compound | inhibitory efficacy on hERG potassium ion channel (in words) [1] | IC50 [1] [µM] | BA [2] [%] | AUC ([2]; 1.25 mg/kg, iv) [ng·h/mL] | Cmax ([2]; 2.5 mg/kg, po) [ng/mL] | Tmax ([2]; 2.5 mg/kg, po) [h] | AUC ([2]; 2.5 mg/kg, po) [ng·h/mL] | AUC ([3]; 1.25 mg/kg, iv) [ng·h/mL] | Cmax ([3]; 2.5 mg/kg, po) [ng/mL] | Tmax ([3]; 2.5 mg/kg, po) [h] | AUC ([3]; 2.5 mg/kg, po) [ng·h/mL] | AUC (in words) [3] | bioavailability (in words) [3] | BA [3] [%]
1 | CNc1ccc(C=Cc2cc3cc(OC)ccc3o2)cc1 [Compound 17, 5-methoxy-2-(4-methylaminostyryl)benzofuran] | insignificant inhibitory efficacy | 47.9 ± 5.26 | 22.4 | 1140 | 122 | 1.33 | 516 | 237 | 96.5 | 0.83 | 326 | high degree of AUC | superior bioavailability | 68.8
2 | COc1ccc2cc(C=Cc3ccc(N(C)C)cc3)oc2c1 [Compound 9, 6-methoxy-2-(4-dimethylaminostyryl)benzofuran] | insignificant inhibitory efficacy | 52.1 ± 3.68 | 27.8 | 1640 | 215 | 1.67 | 908 | 503 | 172 | 0.83 | 646 | high degree of AUC | superior bioavailability | 64.2
